US9706777B2

System: Alternaria solani
Experiment: Alternaria test (tomatoes)/preventive
Conditions: 100 ppm a.i.; preventive spray on young tomato plants; evaluated 3 days after inoculation; 0% = untreated control, 100% = no disease
Experimental: The degree of efficacy, expressed in % is denoted.
In this case, the efficacy which was actually observed must be greater than the value for the expected efficacy (E) calculated from the abovementioned formula.
After the spray coating has dried on, the plants are inoculated with an aqueous spore suspension of Alternaria solani. The plants are then placed in an incubation cabinet at approximately 20° C. and a relative atmospheric humidity of 100%.
The test is evaluated 3 days after the inoculation.

C#CCOc1ccc(CCNC(=O)C(OCC#C)c2ccc(Cl)cc2)cc1OC (stereo not shown) [F206 mandipropamid, mandipropamid]
Efficacy in % found: 0%
